pEC50: −log10 of the molar value.
These molecules were tested on HIV-1 single-round infectious reporter virus (assay: Single-round infectious HIV-1 luciferase reporter virus infection of HeLa CD4 cells). Conditions: Human immunodeficiency virus 1, HeLa, 72 h, read-out: EC50 Group from Table 1.
Type: cell-based
Protocol: • Virus production—Human embryonic Kidney cell line, 293, was propagated in Dulbecco's Modified Eagle Medium (Invitrogen, Carlsbad, Calif.) containing 10% fetal Bovine serum (FBS, Sigma, St. Louis, Mo.). • Virus infection—Human epithelial cell line, HeLa, expressing the HIV-1 receptor CD4 was propagated in Dulbecco's Modified Eagle Medium (Invitrogen, Carlsbad, Calif.) containing 10% fetal Bovine serum (FBS, Sigma, St. Louis, Mo.) and supplemented with 0.2 mg/mL Geneticin (Invitrogen, Carlsbad, Calif.). Virus-Single-round infectious reporter virus was produced by co-transfecting human embryonic Kidney 293 cells with an HIV-1 envelope DNA expression vector and a proviral cDNA containing an envelope deletion mutation and the luciferase reporter gene inserted in place of HIV-1 nef sequences (Chen et al, Ref 41). Transfections were performed using lipofectAMINE PLUS reagent as described by the manufacturer (Invitrogen, Carlsbad, Calif.). Experiment • 1. HeLa CD4 cells were plated in 96 well plates at a cell density of 1×10^4 cells per well in 100 μl Dulbecco's Modified Eagle Medium containing 10% fetal Bovine serum and incubated overnight. • 2. Compound was added in a 2 μl dimethylsulfoxide solution, so that the final assay concentration would be ≦10 μM. • 3. 100 μl of single-round infectious reporter virus in Dulbecco's Modified Eagle Medium was then added to the plated cells and compound at an approximate multiplicity of infection (MOI) of 0.01, resulting in a final volume of 200 μl per well. • 4. Virally-infected cells were incubated at 37 degrees Celsius, in a CO2 incubator, and harvested 72 h after infection. • 5. Viral infection was monitored by measuring luciferase expression from viral DNA in the infected cells using a luciferase reporter gene assay kit, as described by the manufacturer (Roche Molecular Biochemicals, Indianapolis, Ind.). Infected cell supernatants were removed and 50 μl of lysis buffer was added per well. After 15 minutes, 50 μl of freshly-reconstituted luciferase assay reagent was added per well. Luciferase activity was then quantified by measuring luminescence using a Wallac microbeta scintillation counter. • 6. The percent inhibition for each compound was calculated by quantifying the level of luciferase expression in cells infected in the presence of each compound as a percentage of that observed for cells infected in the absence of compound and subtracting such a determined value from 100. • 7. An EC50 provides a method for comparing the antiviral potency of the compounds of this invention. The effective concentration for fifty percent inhibition (EC50) was calculated with the Microsoft Excel Xlfit curve fitting software. For each compound, curves were generated from percent inhibition calculated at 10 different concentrations by using a four paramenter logistic model (model 205). Table 1 is the key for the data in Table 2. Results
In the case of `O=C(C(=O)N1CCN(c2nccc3ccccc23)CC1)c1c[nH]c2c(-c3ncon3)ccc(F)c12` [Example 1], the pEC50 was > 6.00. `O=C(C(=O)N1CCN(c2nccc3ccoc23)CC1)c1c[nH]c2c(-c3ncon3)ccc(F)c12` [Example 2] was tested, and the pEC50 was > 6.00. `O=C(C(=O)N1CCN(c2ncnc3ccccc23)CC1)c1c[nH]c2c(-c3ncon3)ccc(F)c12` [Example 3] was tested, and the pEC50 was > 6.00. For `COc1ccc(Br)c2[nH]cc(C(=O)C(=O)N3CCN(c4nccc5ccccc45)CC3)c12` [Example 4], the pEC50 was > 6.00. In the case of `COc1ccc(-n2ccnc2)c2[nH]cc(C(=O)C(=O)N3CCN(c4nccc5ccccc45)CC3)c12` [Example 5], the pEC50 was > 6.00. `COc1ccc(-n2cccc2)c2[nH]cc(C(=O)C(=O)N3CCN(c4nccc5ccccc45)CC3)c12` [Example 6] was tested, and the pEC50 was > 6.00. With `COc1cnc(C#N)c2[nH]cc(C(=O)C(=O)N3CCN(c4nccc5ccccc45)CC3)c12` [Example 7] the pEC50 was > 6.00. With `COc1ncc(OC)c2c(C(=O)C(=O)N3CCN(c4ncnc5ccccc45)CC3)c[nH]c12` [Example 9] the pEC50 was > 6.00. `COc1ccc(-c2nc(C)n[nH]2)c2[nH]cc(C(=O)C(=O)N3CCN(c4nccc5ccccc45)CC3)c12` [Example 11] was tested, and the pEC50 was > 6.00. `COc1ccc(C(N)=O)c2[nH]cc(C(=O)C(=O)N3CCN(c4nccc5ccccc45)CC3)c12` [Example 12] was tested, and the pEC50 was > 6.00. `CCOC(=O)c1ccc(OC)c2c(C(=O)C(=O)N3CCN(c4nccc5ccccc45)CC3)c[nH]c12` [Example 13] was tested, and the pEC50 was > 6.00. For `COc1ccc(/C(N)=N\O)c2[nH]cc(C(=O)C(=O)N3CCN(c4nccc5ccccc45)CC3)c12` [Example 14], the pEC50 was > 6.00. For `COc1ccc(-c2nn[nH]n2)c2[nH]cc(C(=O)C(=O)N3CCN(c4nccc5ccccc45)CC3)c12` [Example 15], the pEC50 was > 6.00. `COc1ccc(-c2nnn(C)n2)c2[nH]cc(C(=O)C(=O)N3CCN(c4nccc5ccccc45)CC3)c12` [Example 16] was tested, and the pEC50 was > 6.00. With `COc1ccc(-c2ncon2)c2[nH]cc(C(=O)C(=O)N3CCN(c4nccc5ccccc45)CC3)c12` [Example 17] the pEC50 was > 6.00. `COc1ccc(C(=N)NC2CC2)c2[nH]cc(C(=O)C(=O)N3CCN(c4nccc5ccccc45)CC3)c12` [Example 18] was tested, and the pEC50 was > 6.00. For `COc1ccc(-c2nc3ccccc3[nH]2)c2[nH]cc(C(=O)C(=O)N3CCN(c4nccc5ccccc45)CC3)c12` [Example 19], the pEC50 was > 6.00. For `COc1ccc(-c2noc(C)n2)c2[nH]cc(C(=O)C(=O)N3CCN(c4nccc5ccccc45)CC3)c12` [Example 20], the pEC50 was > 6.00. In the case of `COc1ccc(-c2ncn[nH]2)c2[nH]cc(C(=O)C(=O)N3CCN(c4nccc5ccccc45)CC3)c12` [Example 21], the pEC50 was > 6.00. `COc1ccc(-c2nc(-c3cccnc3)n[nH]2)c2[nH]cc(C(=O)C(=O)N3CCN(c4nccc5ccccc45)CC3)c12` [Example 22] was tested, and the pEC50 was > 6.00. In the case of `COc1ccc(C(=N)NNC(=O)c2cccnc2)c2[nH]cc(C(=O)C(=O)N3CCN(c4nccc5ccccc45)CC3)c12` [Example 23], the pEC50 was > 6.00. With `COc1ccc(-c2nc(CC#N)n[nH]2)c2[nH]cc(C(=O)C(=O)N3CCN(c4nccc5ccccc45)CC3)c12` [Example 24] the pEC50 was > 6.00. `COc1ccc(C(=N)NNC(=O)CC#N)c2[nH]cc(C(=O)C(=O)N3CCN(c4nccc5ccccc45)CC3)c12` [Example 25] was tested, and the pEC50 was > 6.00. For `COC(=O)Cn1nnc(-c2ccc(OC)c3c(C(=O)C(=O)N4CCN(c5nccc6ccccc56)CC4)c[nH]c23)n1` [Example 26], the pEC50 was > 6.00. `COc1ccc(-c2nnn(CC(=O)O)n2)c2[nH]cc(C(=O)C(=O)N3CCN(c4nccc5ccccc45)CC3)c12` [Example 27] was tested, and the pEC50 was > 6.00. For `CNC(=O)Cn1nnc(-c2ccc(OC)c3c(C(=O)C(=O)N4CCN(c5nccc6ccccc56)CC4)c[nH]c23)n1` [Example 28], the pEC50 was > 6.00. `COc1ccc(-c2nnn(CC(N)=O)n2)c2[nH]cc(C(=O)C(=O)N3CCN(c4nccc5ccccc45)CC3)c12` [Example 29] was tested, and the pEC50 was > 6.00. In the case of `COc1ccc(-c2cnccn2)c2[nH]cc(C(=O)C(=O)N3CCN(c4nccc5ccccc45)CC3)c12` [Example 30], the pEC50 was > 6.00. With `COc1ccc(-n2cncn2)c2[nH]cc(C(=O)C(=O)N3CCN(c4nccc5ccccc45)CC3)c12` [Example 31] the pEC50 was > 6.00. With `COC(=O)Cc1n[nH]c(-c2ccc(OC)c3c(C(=O)C(=O)N4CCN(c5nccc6ccccc56)CC4)c[nH]c23)n1` [Example 32] the pEC50 was > 6.00. In the case of `COc1ccc(-c2nc(CC(=O)O)n[nH]2)c2[nH]cc(C(=O)C(=O)N3CCN(c4nccc5ccccc45)CC3)c12` [Example 33], the pEC50 was > 6.00. `CNC(=O)Cc1n[nH]c(-c2ccc(OC)c3c(C(=O)C(=O)N4CCN(c5nccc6ccccc56)CC4)c[nH]c23)n1` [Example 34] was tested, and the pEC50 was > 6.00. With `COc1ccc(-c2nc(CC(N)=O)n[nH]2)c2[nH]cc(C(=O)C(=O)N3CCN(c4nccc5ccccc45)CC3)c12` [Example 35] the pEC50 was > 6.00. `COc1cnc(-n2cncn2)c2[nH]cc(C(=O)C(=O)N3CCN(c4nccc5ccccc45)CC3)c12` [Example 36] was tested, and the pEC50 was > 6.00. In the case of `O=C(C(=O)N1CCN(c2nccc3ccccc23)CC1)c1c[nH]c2c(Cl)ccnc12` [Example 37], the pEC50 was > 6.00. For `O=C(C(=O)N1CCN(c2nccc3ccccc23)CC1)c1c[nH]c2c(-c3nccs3)ccnc12` [Example 38], the pEC50 was > 6.00. In the case of `COc1cnc(-n2cnc(C)n2)c2[nH]cc(C(=O)C(=O)N3CCN(c4ccnc5ccccc45)CC3)c12` [Example 39], the pEC50 was > 6.00. For `Cc1cc(N2CCN(C(=O)C(=O)c3c[nH]c4c(-c5ncon5)ccc(F)c34)CC2)c2ccccc2n1` [Example 40], the pEC50 was > 6.00. For `COc1ccc(C#N)c2[nH]cc(C(=O)C(=O)N3CCN(c4nccc5ccccc45)CC3)c12` [Example 43], the pEC50 was > 6.00. `COc1ccc(C#N)c2[nH]cc(C(=O)C(=O)N3CCN(c4ncnc5ccccc45)CC3)c12` [Example 44] was tested, and the pEC50 was > 6.00. For `COc1cnc(C#N)c2[nH]cc(C(=O)C(=O)N3CCN(c4ncnc5ccccc45)CC3)c12` [Example 45], the pEC50 was > 6.00. For `COc1cnc(-n2cnc(C)n2)c2[nH]cc(C(=O)C(=O)N3CCN(c4ncnc5ccccc45)CC3)c12` [Example 46], the pEC50 was > 6.00. With `COc1cnc(-n2cncn2)c2[nH]cc(C(=O)C(=O)N3CCN(c4ncnc5ccccc45)CC3)c12` [Example 47] the pEC50 was > 6.00. `O=C(C(=O)N1CCN(c2ncnc3ccccc23)CC1)c1c[nH]c2c(-n3ccnn3)ncc(F)c12` [Example 48] was tested, and the pEC50 was > 6.00. For `COc1cnc(C(N)=O)c2[nH]cc(C(=O)C(=O)N3CCN(c4ncnc5ccccc45)CC3)c12` [Example 49], the pEC50 was > 6.00. For `COc1cnc(C(=O)O)c2[nH]cc(C(=O)C(=O)N3CCN(c4ncnc5ccccc45)CC3)c12` [Example 50], the pEC50 was > 6.00. In the case of `COc1cnc(-n2nccn2)c2[nH]cc(C(=O)C(=O)N3CCN(c4ncnc5ccccc45)CC3)c12` [Example 51], the pEC50 was > 6.00. For `COc1cnc(-n2ccnn2)c2[nH]cc(C(=O)C(=O)N3CCN(c4ncnc5ccccc45)CC3)c12` [Example 52], the pEC50 was > 6.00. With `COc1cnc(Br)c2[nH]cc(C(=O)C(=O)N3CCN(c4ncnc5ccccc45)CC3)c12` [Example 53] the pEC50 was > 6.00. For `COc1cnc(-n2ccnn2)c2[nH]cc(C(=O)C(=O)N3CCN(c4nncc5ccccc45)CC3)c12` [Example 54], the pEC50 was > 6.00. For `COc1cnc(-n2cnc(C)n2)c2[nH]cc(C(=O)C(=O)N3CCN(c4nncc5ccccc45)CC3)c12` [Example 55], the pEC50 was > 6.00. For `O=C(C(=O)N1CCN(c2nncc3ccccc23)CC1)c1c[nH]c2c(-n3ccnn3)ncc(F)c12` [Example 56], the pEC50 was > 6.00. `COc1nnc(N2CCN(C(=O)C(=O)c3c[nH]c4c(-n5cnc(C)n5)ncc(OC)c34)CC2)c2ccccc12` [Example 57] was tested, and the pEC50 was > 6.00. In the case of `COc1cnc(-n2cnc(C)n2)c2[nH]cc(C(=O)C(=O)N3CCN(c4nnc(O)c5ccccc45)CC3)c12` [Example 58], the pEC50 was > 6.00. For `Cc1nc(N2CCN(C(=O)C(=O)c3c[nH]c4c(-n5ccnn5)ncc(F)c34)CC2)c2ccccc2n1` [Example 59], the pEC50 was > 6.00. For `COc1cnc(-n2cnc(C)n2)c2[nH]cc(C(=O)C(=O)N3CCN(c4nc(C)nc5ccccc45)CC3)c12` [Example 60], the pEC50 was > 6.00. In the case of `COc1cnc(-n2ccnn2)c2[nH]cc(C(=O)C(=O)N3CCN(c4nc(C)nc5ccccc45)CC3)c12` [Example 61], the pEC50 was > 6.00. `COc1cnc(Br)c2[nH]cc(C(=O)C(=O)N3CCN(c4nncc5ccccc45)CC3)c12` [Example 62] was tested, and the pEC50 was > 6.00. In the case of `COc1cnc(C(N)=O)c2[nH]cc(C(=O)C(=O)N3CCN(c4nncc5ccccc45)CC3)c12` [Example 64], the pEC50 was > 6.00.

From patent US8039486B2, “Indole, azaindole and related heterocyclic N-substituted piperazine derivatives” (priority 2003, dated 2011)
